This data set has as its system ncRNAs (SEQ ID NO 28-89). Briefly: ncRNA arrays of melanocytes, keratinocytes, normal skin, melanoma cell lines and patient samples. Further details: species or system human. The following applies: for ncRNA array expression, patient 2: melanoma patient 2 sample compared to normal skin; for ncRNA array expression, patient 3: melanoma patient 3 sample compared to normal skin; for ncRNA array expression, patient 4: melanoma patient 4 sample compared to normal skin; for ncRNA array expression, patient 5: melanoma patient 5 sample compared to normal skin; for ncRNA array expression, patient 6: melanoma patient 6 sample compared to normal skin; for ncRNA array expression, patient 7: melanoma patient 7 sample compared to normal skin; for ncRNA array expression, patient 8: melanoma patient 8 sample compared to normal skin; for ncRNA array expression, patient 9: melanoma patient 9 sample compared to normal skin; for ncRNA array expression, patient 10: melanoma patient 10 sample compared to normal skin; for ncRNA array expression, patient 19: melanoma patient 19 sample compared to normal skin; for ncRNA array expression, patient 20: melanoma patient 20 sample compared to normal skin; for ncRNA array expression, patient 21: melanoma patient 21 sample compared to normal skin; for ncRNA array expression, patient 22: melanoma patient 22 sample compared to normal skin; for ncRNA array expression, patient 23: melanoma patient 23 sample compared to normal skin; for ncRNA array expression, patient 24: melanoma patient 24 sample compared to normal skin; for ncRNA array expression, patient 25: melanoma patient 25 sample compared to normal skin; for ncRNA array expression, patient 26: melanoma patient 26 sample compared to normal skin; for ncRNA array expression, patient 27: melanoma patient 27 sample compared to normal skin; for ncRNA array expression, patient 28: melanoma patient 28 sample compared to normal skin; for ncRNA array expression, patient 29: melanoma patient 29 sample compared to normal skin; for ncRNA array expression, patient 30: melanoma patient 30 sample compared to normal skin. The gist of the method:
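Differential ncRNA expression was defined against melanocytes or normal skin after subtracting keratinocyte-specific signals, with confirmation by qRT-PCR and Northern blot. Samples were melanoma cell lines, patient tumours, melanocytes, keratinocytes and normal skin, hybridised to a >10,000-probe (>200 nt) ncRNA array that also carries RefSeq mRNA probes.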

As to “SEQ ID NO 46 (CTATTGGAGTGCATATAAATTCTTGATAGCACCAGTTCTCAAATATGAGGTGTTAAAAAC; listed as DNA, chemistry not given here; listed as Homo sapiens)”, the “ncRNA array expression, patient 2” value was 0.198; the “ncRNA array expression, patient 3” value is reported as 0.6718; the “ncRNA array expression, patient 4” value is 1.187; the “ncRNA array expression, patient 5” value is recorded as 0.9853. The “ncRNA array expression, patient 6” value turned out to be 0.04368; the “ncRNA array expression, patient 7” value is 0.7142; the “ncRNA array expression, patient 8” value turned out to be 1.688; the “ncRNA array expression, patient 9” value is 5.175. Moreover, the “ncRNA array expression, patient 10” value amounted to 1.916; the “ncRNA array expression, patient 19” value is on record as 2.172; the “ncRNA array expression, patient 20” value worked out at 0.395; the “ncRNA array expression, patient 21” value is listed as 0.7531. For the same substance, the “ncRNA array expression, patient 22” value is −0.4275; the “ncRNA array expression, patient 23” value came out at 0.6081; the “ncRNA array expression, patient 24” value worked out at 0.8675; the “ncRNA array expression, patient 25” value came to 1.428. The “ncRNA array expression, patient 26” value turned out to be 2.919; the “ncRNA array expression, patient 27” value is on record as 1.824; the “ncRNA array expression, patient 28” value is 1.253; the “ncRNA array expression, patient 29” value is on record as 2.278. Also, the “ncRNA array expression, patient 30” value is reported as 0.4452.

Take “SEQ ID NO 47 (GTATTTGTAATATTTGATTTGCTTTTAGCAGAGAAAACAATAAAAGAATCCAGGAAAAGT; listed as DNA, chemistry not given here; listed as Homo sapiens)”: the “ncRNA array expression, patient 2” value is −2.442; the “ncRNA array expression, patient 3” value is given as −2.494; the “ncRNA array expression, patient 4” value was −2.265; the “ncRNA array expression, patient 5” value is on record as −2.234. For the same substance, the “ncRNA array expression, patient 6” value was −2.076; the “ncRNA array expression, patient 7” value is −2.368; the “ncRNA array expression, patient 8” value is −1.927; the “ncRNA array expression, patient 9” value is −2.484. Further, the “ncRNA array expression, patient 10” value is recorded as −1.685; the “ncRNA array expression, patient 19” value is given as −2.485; the “ncRNA array expression, patient 20” value was −2.495; the “ncRNA array expression, patient 21” value is −2.249. In addition, the “ncRNA array expression, patient 22” value is given as −2.41; the “ncRNA array expression, patient 23” value was −2.401; the “ncRNA array expression, patient 24” value is −2.489; the “ncRNA array expression, patient 25” value was −2.453. The “ncRNA array expression, patient 26” value was −2.486; the “ncRNA array expression, patient 27” value is −2.489; the “ncRNA array expression, patient 28” value was −2.481; the “ncRNA array expression, patient 29” value is −2.234. Also, the “ncRNA array expression, patient 30” value is −1.529.

Turning to “SEQ ID NO 48 (ACTTATATTCAGAGCATGTGGATTGGGACTCTGAAGAACAACTTTATGGTGGACACCTTC; listed as DNA, chemistry not given here; listed as Homo sapiens)”, the “ncRNA array expression, patient 2” value is given as 0.9515; the “ncRNA array expression, patient 3” value came out at 3.672; the “ncRNA array expression, patient 4” value is given as 3.353; the “ncRNA array expression, patient 5” value came to 0.2362. For the same substance, the “ncRNA array expression, patient 6” value is listed as −0.1733; the “ncRNA array expression, patient 7” value stood at 0.648; the “ncRNA array expression, patient 8” value came to 3.309; the “ncRNA array expression, patient 9” value is given as −0.2759. Moreover, the “ncRNA array expression, patient 10” value is listed as 2.286; the “ncRNA array expression, patient 19” value is 3.38; the “ncRNA array expression, patient 20” value came out at 1.713; the “ncRNA array expression, patient 21” value is given as 1.144. In addition, the “ncRNA array expression, patient 22” value is given as −0.4681; the “ncRNA array expression, patient 23” value is −0.4589; the “ncRNA array expression, patient 24” value came out at 2.492; the “ncRNA array expression, patient 25” value worked out at 4.7. Further, the “ncRNA array expression, patient 26” value amounted to 2.981; the “ncRNA array expression, patient 27” value was 4.712; the “ncRNA array expression, patient 28” value is recorded as 0.2102; the “ncRNA array expression, patient 29” value is on record as 0.1927. Further, the “ncRNA array expression, patient 30” value is −0.334.

Regarding “SEQ ID NO 49 (CGATGGCTTGTCATTGTCCCCTGTCCTGGAACAATAAAGCAAGTGCCTTGTGGTCTCACT; listed as DNA, chemistry not given here; listed as Homo sapiens)”, the “ncRNA array expression, patient 2” value was −3.131; the “ncRNA array expression, patient 3” value was −1.901; the “ncRNA array expression, patient 4” value was −2.3226; the “ncRNA array expression, patient 5” value is −1.9036. For the same substance, the “ncRNA array expression, patient 6” value is recorded as 0.7986; the “ncRNA array expression, patient 7” value is listed as −1.477; the “ncRNA array expression, patient 8” value is reported as −1.974; the “ncRNA array expression, patient 9” value is recorded as −2.214. For the same substance, the “ncRNA array expression, patient 10” value is listed as −4.429; the “ncRNA array expression, patient 19” value is on record as −2.094; the “ncRNA array expression, patient 20” value is −2.123; the “ncRNA array expression, patient 21” value is on record as −2.207. For the same substance, the “ncRNA array expression, patient 22” value is on record as −2.118; the “ncRNA array expression, patient 23” value was −1.787; the “ncRNA array expression, patient 24” value is given as −1.642; the “ncRNA array expression, patient 25” value is listed as −2.472. The “ncRNA array expression, patient 26” value was −3.037; the “ncRNA array expression, patient 27” value is recorded as −2.447; the “ncRNA array expression, patient 28” value is listed as −2.621; the “ncRNA array expression, patient 29” value is on record as −2.39. Moreover, the “ncRNA array expression, patient 30” value is −0.9259.

Consider “SEQ ID NO 50 (GTTATTATAACCAATGCAGACTTTAAAATCCCACCTGGACATCGGGTGAGAGGAGGAGGG; listed as DNA, chemistry not given here; listed as Homo sapiens)”, for which the “ncRNA array expression, patient 2” value is recorded as −2.415; the “ncRNA array expression, patient 3” value was −1.962; the “ncRNA array expression, patient 4” value is on record as −2.102; the “ncRNA array expression, patient 5” value is given as −1.782. Moreover, the “ncRNA array expression, patient 6” value is recorded as −1.159; the “ncRNA array expression, patient 7” value is given as −1.978; the “ncRNA array expression, patient 8” value was −1.68; the “ncRNA array expression, patient 9” value is listed as −2.03. Further, the “ncRNA array expression, patient 10” value is given as −1.537; the “ncRNA array expression, patient 19” value is listed as −0.5347; the “ncRNA array expression, patient 20” value is −1.776; the “ncRNA array expression, patient 21” value was −1.854. In addition, the “ncRNA array expression, patient 22” value is on record as −1.427; the “ncRNA array expression, patient 23” value is reported as −0.1575; the “ncRNA array expression, patient 24” value is reported as −1.434; the “ncRNA array expression, patient 25” value is reported as −1.804. The “ncRNA array expression, patient 26” value is −1.952; the “ncRNA array expression, patient 27” value is listed as −1.707; the “ncRNA array expression, patient 28” value is −1.738; the “ncRNA array expression, patient 29” value is given as −2.317. Also, the “ncRNA array expression, patient 30” value was −0.3312.

Source of the values: US20110143948A1, “MOLECULAR SIGNATURES AND BIOMARKERS ASSOCIATED WITH MELANOMA AND METHODS OF USE THEREOF” (priority 2008, published 2011).
